Test results reported in BindingDB's records for doi:10.1021/jm970470c (Warner-Lambert, 1997).

Assay: Concentration required to inhibit 50% of the cultured colonies of H-Ras-Fcells.
With `C[C@@H](Cc1ccccc1)NC(=O)CN(Cc1ccc(OCc2ccccc2)cc1)C(=O)[C@H](Cc1cnc[nH]1)NC(=O)OCc1ccccc1` [[(S)-1-{(4-Benzyloxy-benzyl)-[((S)-1-methyl-2-phenyl-ethylcarbamoyl)-methyl]-carbamoyl}-2-(3H-imidazol-4-yl)-ethyl]-carbamic acid benzyl ester] the IC50 was 6.3 µM. Compound `O=C(CN(Cc1ccc(OCc2ccccc2)cc1)C(=O)[C@H](Cc1cnc[nH]1)NC(=O)OCc1ccccc1)NCC1(c2ccccc2)CCCC1` [[(S)-1-((4-Benzyloxy-benzyl)-{[(1-phenyl-cyclopentylmethyl)-carbamoyl]-methyl}-carbamoyl)-2-(3H-imidazol-4-yl)-ethyl]-carbamic acid benzyl ester] has an IC50 of 0.33 µM. In the case of `C[C@H](CNC(=O)CN(Cc1ccc(OCc2ccccc2)cc1)C(=O)[C@H](Cc1cnc[nH]1)NC(=O)OCc1ccccc1)c1ccccc1` [[(S)-1-{(4-Benzyloxy-benzyl)-[((S)-2-phenyl-propylcarbamoyl)-methyl]-carbamoyl}-2-(3H-imidazol-4-yl)-ethyl]-carbamic acid benzyl ester], the IC50 is reported as 0.3 µM. With `CC(CNC(=O)CN(Cc1ccc(OCc2ccccc2)cc1)C(=O)[C@H](Cc1cnc[nH]1)NC(=O)OCc1ccccc1)c1ccccc1` (stereo partly drawn) [[(S)-1-{(4-Benzyloxy-benzyl)-[(2-phenyl-propylcarbamoyl)-methyl]-carbamoyl}-2-(3H-imidazol-4-yl)-ethyl]-carbamic acid benzyl ester] the IC50 was 0.31 µM. In the case of `CCC(CNC(=O)CN(Cc1ccc(OCc2ccccc2)cc1)C(=O)[C@H](Cc1cnc[nH]1)NC(=O)OCc1ccccc1)c1ccccc1` (stereo partly drawn) [[(S)-1-{(4-Benzyloxy-benzyl)-[(2-phenyl-butylcarbamoyl)-methyl]-carbamoyl}-2-(3H-imidazol-4-yl)-ethyl]-carbamic acid benzyl ester], the IC50 is reported as 0.4 µM. Work on `C[C@@H](CNC(=O)CN(Cc1ccc(OCc2ccccc2)cc1)C(=O)[C@H](Cc1cnc[nH]1)NC(=O)OCc1ccccc1)c1ccccc1` [[(S)-1-{(4-Benzyloxy-benzyl)-[((R)-2-phenyl-propylcarbamoyl)-methyl]-carbamoyl}-2-(3H-imidazol-4-yl)-ethyl]-carbamic acid benzyl ester] yielded an IC50 of 0.57 µM. In the case of `CCC(CC)(CNC(=O)CN(Cc1ccc(OCc2ccccc2)cc1)C(=O)[C@H](Cc1cnc[nH]1)NC(=O)OCc1ccccc1)c1ccccc1` [[(S)-1-{(4-Benzyloxy-benzyl)-[(2-ethyl-2-phenyl-butylcarbamoyl)-methyl]-carbamoyl}-2-(3H-imidazol-4-yl)-ethyl]-carbamic acid benzyl ester], the IC50 is reported as over 1 µM. In the case of `O=C(CN(Cc1ccc(OCc2ccccc2)cc1)C(=O)[C@H](Cc1cnc[nH]1)NC(=O)OCc1ccccc1)NCCOCc1ccccc1` [[(S)-1-{(4-Benzyloxy-benzyl)-[(2-benzyloxy-ethylcarbamoyl)-methyl]-carbamoyl}-2-(1H-imidazol-4-yl)-ethyl]-carbamic acid benzyl ester], the IC50 is reported as 14.3 µM. `O=C(CN(Cc1ccc(OCc2ccccc2)cc1)C(=O)[C@H](Cc1cnc[nH]1)NC(=O)OCc1ccccc1)NCC1(c2ccccc2)CC1` [[(S)-1-((4-Benzyloxy-benzyl)-{[(1-phenyl-cyclopropylmethyl)-carbamoyl]-methyl}-carbamoyl)-2-(3H-imidazol-4-yl)-ethyl]-carbamic acid benzyl ester] gave an IC50 of 0.18 µM. With `CCCC(CNC(=O)CN(Cc1ccc(OCc2ccccc2)cc1)C(=O)[C@H](Cc1cnc[nH]1)NC(=O)OCc1ccccc1)c1ccccc1` (stereo partly drawn) [[(S)-1-{(4-Benzyloxy-benzyl)-[(2-phenyl-pentylcarbamoyl)-methyl]-carbamoyl}-2-(3H-imidazol-4-yl)-ethyl]-carbamic acid benzyl ester] the IC50 was over 1 µM. For `N#CC(CNC(=O)CN(Cc1ccc(OCc2ccccc2)cc1)C(=O)[C@H](Cc1cnc[nH]1)NC(=O)OCc1ccccc1)c1ccccc1` (stereo partly drawn) [[(S)-1-{(4-Benzyloxy-benzyl)-[(2-cyano-2-phenyl-ethylcarbamoyl)-methyl]-carbamoyl}-2-(3H-imidazol-4-yl)-ethyl]-carbamic acid benzyl ester], the IC50 was 0.19 µM. Work on `O=C(CN(Cc1ccc(OCc2ccccc2)cc1)C(=O)[C@H](Cc1cnc[nH]1)NC(=O)OCc1ccccc1)NCC1(c2ccccc2)CCC1` [[(S)-1-((4-Benzyloxy-benzyl)-{[(1-phenyl-cyclobutylmethyl)-carbamoyl]-methyl}-carbamoyl)-2-(3H-imidazol-4-yl)-ethyl]-carbamic acid benzyl ester] yielded an IC50 of 0.088 µM. In the case of `CC(C)(CNC(=O)CN(Cc1ccc(OCc2ccccc2)cc1)C(=O)[C@H](Cc1cnc[nH]1)NC(=O)OCc1ccccc1)c1ccccc1` [[(S)-1-{(4-Benzyloxy-benzyl)-[(2-methyl-2-phenyl-propylcarbamoyl)-methyl]-carbamoyl}-2-(3H-imidazol-4-yl)-ethyl]-carbamic acid benzyl ester], the IC50 is reported as 0.18 µM. Compound `O=C(CN(Cc1ccc(OCc2ccccc2)cc1)C(=O)[C@H](Cc1cnc[nH]1)NC(=O)OCc1ccccc1)NCCc1ccccc1` [[(S)-1-[(4-Benzyloxy-benzyl)-(phenethylcarbamoyl-methyl)-carbamoyl]-2-(1H-imidazol-4-yl)-ethyl]-carbamic acid benzyl ester] has an IC50 of 4.3 µM. Compound `C[C@H](Cc1ccccc1)NC(=O)CN(Cc1ccc(OCc2ccccc2)cc1)C(=O)[C@H](Cc1cnc[nH]1)NC(=O)OCc1ccccc1` [[(S)-1-{(4-Benzyloxy-benzyl)-[((R)-1-methyl-2-phenyl-ethylcarbamoyl)-methyl]-carbamoyl}-2-(3H-imidazol-4-yl)-ethyl]-carbamic acid benzyl ester] has an IC50 of 0.71 µM.
